{
  "source": "patent US20180344763A1",
  "about": "“METHODS FOR ADVERSELY AFFECTING BIOFILMS” (Commonwealth Scientific and Industrial Research Organisation, priority 2015, published 2018)",
  "key": {"S. aureus [1]": {"tested_on": "S. aureus", "assay": "Broth microdilution MIC, planktonic cells", "type": "cell-based", "settings": "Staphylococcus aureus; S. aureus single species culture, RPMI-1640, 18 h"}, "S. aureus biofilms": {"tested_on": "S. aureus biofilms", "assay": "Antimicrobial susceptibility of single biofilm (XTT, biofilm MIC80)", "type": "cell-based, Staphylococcus aureus", "settings": "S. aureus single species biofilm, 18 h treatment", "protocol": "(§1) Single biofilms of S. aureus or C. albicans were set up in 96-well microplates as described above. After overnight incubation, the cell suspensions were aspirated and the wells were rinsed twice with 100 μL of PBS per well to remove non-adherent cells. Two hundred microlitres of antimicrobial agents were added into each well, and the treatments lasted for 18 h for S. aureus and 48 h for C. albicans. After the treatment, the suspensions were removed and the microwells were washed twice with PBS. Two hundred microlitres of 2, 3-bis (2-methoxy-4-nitro-5-sulfophenyl)-5-[(phenylamino) carbonyl]-2H-tetrazolium hydroxide (XTT, 0.5 mg/L) solution were added into each well and the microplate were incubated at 37° C. in the dark for 2 h. One hundred microliters of XTT solution were transferred to a new microplate and read at OD492. Alternatively, the efficacy of antimicrobial agents against biofilms was determined based on the reduction in viable counts after exposure to antimicrobials. The ratio of cell survival (cell density after antimicrobial treatment) relative to antimicrobial-free culture (cell density of the drug-free biofilms) (×100) was calculated."}, "C. albicans [2]": {"tested_on": "C. albicans", "assay": "Broth microdilution MIC, planktonic cells", "type": "cell-based, Candida albicans", "settings": "C. albicans single species culture, RPMI-1640, 48 h", "protocol": "(§2) Minimum inhibitory concentrations (MICs) for antibacterial and antifungal agents were determined using the broth microdilution method according to CLSI guidelines M07-A9 (for S. aureus) and M27-A3 (for C. albicans), but replacing Muller-Hinton broth with RPMI-1640 for antibacterial MIC testing. One hundred microlitres of two-fold serial dilutions of the drugs prepared in RPMI-1640 were added into the wells of 96-well microplates. Exponentially grown cultures were diluted in RPMI-1640 to a density of ˜1×10^3 CFU/mL for C. albicans and ˜1×10^6 CFU/mL for S. aureus and 100 μL were added to each well. Microplates were incubated for 18 h at 35° C. for S. aureus and 48 h for C. albicans. Bacterial or fungal growth was examined visually with the aid of a mirror reader. The antibacterial MIC was defined as the lowest concentration resulting in complete growth inhibition. The MIC of antifungals was read as the lowest concentration that prevents discernible growth for amphotericin B or polymers, or as the lowest concentration that inhibits at least 50% of fungal growth for fluconazole and caspofungin, corresponding to a score of zero or two in the CLSI M27-A3 protocol."}, "C. albicans biofilms": {"tested_on": "C. albicans biofilms", "assay": "Antimicrobial susceptibility of single biofilm (XTT, biofilm MIC80)", "type": "cell-based, Candida albicans", "settings": "for Biofilm MIC80: C. albicans single species biofilm, 48 h treatment; for Activity against C. albicans monomicrobial biofilms: compared with planktonic growth", "protocol": "as §1"}, "[3]": {"tested_on": "S. aureus 24 h single biofilms", "assay": "Catheter lock solution re-growth assay (MBEC)", "type": "cell-based, Staphylococcus aureus", "settings": "S. aureus 24 h biofilm, 18 h exposure", "protocol": "(§3) Biofilms were washed three times with saline to remove the residual antimicrobial agents. Two hundred microliter volumes of TSB were then added to each well and microplates were incubated at 35° C. for a further 48 h. A microplate shaker (speed 2) ([…], Flow laboratories, Germany) was used to facilitate the multiplication and release of any living cells remaining in the biofilms. After 48 h, 150 μL of the contents in each well in the microplate was transferred to a U-bottom microplate and examined visually for turbidity. The lowest concentration of antimicrobial agents corresponding to clear wells was defined as the minimum biofilm eradication concentration (MBEC) for successful use as CLS."}, "[4]": {"tested_on": "C. albicans 24 h single biofilms", "assay": "Catheter lock solution re-growth assay (MBEC)", "type": "cell-based, Candida albicans", "settings": "C. albicans 24 h biofilm, 18 h exposure", "protocol": "as §3"}, "[5]": {"tested_on": "C. albicans-S. aureus polymicrobial biofilms", "assay": "Catheter lock solution re-growth assay (MBEC)", "type": "cell-based, Candida albicans and Staphylococcus aureus", "settings": "polymicrobial 24 h biofilm, 18 h exposure", "protocol": "as §3"}, "C. albicans [6]": {"tested_on": "C. albicans", "assay": "Planktonic MIC in presence or absence of isolated biofilm matrix", "type": "cell-based, Candida albicans", "protocol": "as §2\n(§4) Extracellular matrix was isolated from Candida or polymicrobial biofilms following the method reported in PLoS pathogens 2012, 8:e1002848. Biofilms were established by growing cultures in 6-well TCPS microplates for 48 h at 37° C. Supernatants were carefully removed from each well and the biofilms were washed once with sterile distilled water. One millilitre of distilled water was added into each well, and the biofilms were removed using a cell scraper. This step was repeated three times. The suspensions containing dislodged biofilms were then transferred into a 50 ml Falcon tube, sonicated with a Branson Sonicator for 10 min (duty cycle constant, output 20%). The suspensions were vortexed for 2 min at full speed (4×30 s), prior to centrifugation at 6000 rpm for 15 min for 5 times. The supernatants containing the extracellular matrix were removed and stored at −20° C. […]"}, "S. aureus [7]": {"tested_on": "S. aureus", "assay": "Planktonic MIC in presence or absence of isolated biofilm matrix", "type": "cell-based, Staphylococcus aureus", "protocol": "as §2, §4"}},
  "data": [
    {"compound": "CO[C@H]1/C=C/O[C@@]2(C)Oc3c(C)c(O)c4c(O)c(c(/C=N/N5CCN(C)CC5)c(O)c4c3C2=O)NC(=O)/C(C)=C\\C=C\\[C@H](C)[C@H](O)[C@@H](C)[C@@H](O)[C@@H](C)[C@H](OC(C)=O)[C@@H]1C", "note": "[Rifampicin, rifampicin]", "values": [
      {"measurement": "MIC", "setting": "S. aureus [1]", "value": 0.015, "unit": "µg/mL"},
      {"measurement": "Biofilm MIC80", "setting": "S. aureus biofilms", "value": ">1024", "unit": "µg/mL"}
    ]},
    {"compound": "O=C(O)c1cn(C2CC2)c2cc(N3CCNCC3)c(F)cc2c1=O", "note": "[Ciprofloxacin, ciprofloxacin]", "values": [
      {"measurement": "Biofilm MIC80", "setting": "S. aureus biofilms", "value": ">1024", "unit": "µg/mL"}
    ]},
    {"compound": "CC[C@H](C)C[C@H](C)CCCCCCCCC(=O)N[C@H]1C[C@@H](O)[C@@H](NCCN)NC(=O)[C@@H]2[C@@H](O)CCN2C(=O)[C@H]([C@H](O)CCN)NC(=O)[C@H]([C@H](O)[C@@H](O)c2ccc(O)cc2)NC(=O)[C@@H]2C[C@@H](O)CN2C(=O)[C@H]([C@@H](C)O)NC1=O", "note": "[Caspofungin, caspofungin]", "values": [
      {"measurement": "MIC", "setting": "C. albicans [2]; Candida albicans", "value": 1, "unit": "µg/mL"},
      {"measurement": "Biofilm MIC80", "setting": "C. albicans biofilms", "value": 0.12, "unit": "µg/mL"},
      {"measurement": "Activity against C. albicans monomicrobial biofilms", "setting": "C. albicans biofilms", "value": "retaining their activities"}
    ]},
    {"compound": "Cc1onc(-c2ccccc2)c1C(=O)N[C@@H]1C(=O)N2[C@@H]1SC(C)(C)[C@@H]2C(=O)O", "note": "[Oxacillin, oxacillin]", "values": [
      {"measurement": "MIC", "setting": "S. aureus [1]", "value": 0.06, "unit": "µg/mL"},
      {"measurement": "Biofilm MIC80", "setting": "S. aureus biofilms", "value": ">1024", "unit": "µg/mL"}
    ]},
    {"compound": "CCO", "note": "[Ethanol, ethanol]", "values": [
      {"measurement": "MBEC as catheter lock solution", "setting": "[3]", "value": "20% (V/V)"},
      {"measurement": "MBEC as catheter lock solution", "setting": "[4]", "value": "20% (V/V)"},
      {"measurement": "MBEC as catheter lock solution", "setting": "[5]", "value": "20% (V/V)"},
      {"measurement": "MBEC as catheter lock solution", "setting": "[5]; listed as ethanol", "value": "20 % (V/V)"}
    ]},
    {"compound": "C[C@@H]1[C@H](O)[C@@H](C)/C=C/C=C/C=C/C=C/C=C/C=C/C=C/[C@H](O[C@@H]2O[C@H](C)[C@@H](O)[C@H](N)[C@@H]2O)C[C@@H]2O[C@](O)(C[C@@H](O)C[C@@H](O)[C@H](O)CC[C@@H](O)C[C@@H](O)CC(=O)O[C@H]1C)C[C@H](O)[C@H]2C(=O)O", "note": "[Amphotericin B, amphotericin B]", "values": [
      {"measurement": "Planktonic MIC", "setting": "C. albicans [2]", "value": 1, "unit": "µg/mL"},
      {"measurement": "Biofilm MIC80", "setting": "C. albicans biofilms", "value": 1, "unit": "µg/mL"},
      {"measurement": "Activity against C. albicans monomicrobial biofilms", "setting": "C. albicans biofilms", "value": "retaining their activities"}
    ]},
    {"compound": "OC(Cn1cncn1)(Cn1cncn1)c1ccc(F)cc1F", "note": "[Fluconazole, fluconazole]", "values": [
      {"measurement": "Biofilm MIC80", "setting": "C. albicans biofilms", "value": ">1024", "unit": "µg/mL"},
      {"measurement": "Increase in MIC in presence of biofilm matrix", "setting": "C. albicans [6]; C. albicans or polymicrobial biofilm matrix", "value": 16, "unit": "fold"},
      {"measurement": "MIC, C. albicans biofilm matrix", "setting": "C. albicans [6]; in presence of C. albicans biofilm matrix", "value": 8, "unit": "µg/mL"},
      {"measurement": "MIC, polymicrobial biofilm matrix", "setting": "C. albicans [6]; in presence of polymicrobial biofilm matrix", "value": 8, "unit": "µg/mL"}
    ]},
    {"compound": "CN[C@H](CC(C)C)C(=O)N[C@H]1C(=O)N[C@@H](CC(N)=O)C(=O)N[C@H]2C(=O)N[C@H]3C(=O)N[C@H](C(=O)N[C@H](C(=O)O)c4cc(O)cc(O)c4-c4cc3ccc4O)[C@H](O)c3ccc(c(Cl)c3)Oc3cc2cc(c3O[C@@H]2O[C@H](CO)[C@@H](O)[C@H](O)[C@H]2O[C@H]2C[C@](C)(N)[C@H](O)[C@H](C)O2)Oc2ccc(cc2Cl)[C@H]1O", "note": "[Vancomycin, vancomycin]", "values": [
      {"measurement": "MIC", "setting": "S. aureus [1]", "value": 1, "unit": "µg/mL"},
      {"measurement": "Biofilm MIC80", "setting": "S. aureus biofilms", "value": ">1024", "unit": "µg/mL"},
      {"measurement": "MIC, C. albicans biofilm matrix", "setting": "S. aureus [7]; S. aureus, in presence of C. albicans biofilm matrix", "value": 1, "unit": "µg/mL"},
      {"measurement": "MIC, polymicrobial biofilm matrix", "setting": "S. aureus [7]; S. aureus, in presence of polymicrobial biofilm matrix", "value": 2, "unit": "µg/mL"},
      {"measurement": "MIC", "setting": "S. aureus [7]; Staphylococcus aureus, read-out: MIC, medium only", "value": 2, "unit": "µg/mL"}
    ]}
  ]
}
